Numbers after ± are expanded uncertainties.
Assay: xn = mol fraction of the nth substance listed
Conditions: 101.3 kPa, Liquid

Cc1cccc(C)c1 [1,3-dimethylbenzene] + C[S+](C)[O-]
Conditions	mass density [kg/m3]
293.15 K, x1 = 0.0679	1074.3 ± 0.33
293.15 K, x1 = 0.1489	1046.5 ± 0.35
293.15 K, x1 = 0.2044	1028.97 ± 0.38
293.15 K, x1 = 0.2613	1012.13 ± 0.41
293.15 K, x1 = 0.3487	988.35 ± 0.47
293.15 K, x1 = 0.3975	976.03 ± 0.51
293.15 K, x1 = 0.4578	961.7 ± 0.56
293.15 K, x1 = 0.5244	946.87 ± 0.61
293.15 K, x1 = 0.5896	933.28 ± 0.66
293.15 K, x1 = 0.6597	919.61 ± 0.71
293.15 K, x1 = 0.7393	905.13 ± 0.77
293.15 K, x1 = 0.8218	891.15 ± 0.82
293.15 K, x1 = 0.8835	881.33 ± 0.87
293.15 K, x1 = 0.9412	872.62 ± 0.9
303.15 K, x1 = 0.0735	1063.89 ± 0.32
303.15 K, x1 = 0.1579	1035.01 ± 0.35
303.15 K, x1 = 0.2387	1010.01 ± 0.39
303.15 K, x1 = 0.3087	990.22 ± 0.44
303.15 K, x1 = 0.3754	972.78 ± 0.49
303.15 K, x1 = 0.4147	963.09 ± 0.52
303.15 K, x1 = 0.4892	945.8 ± 0.58
303.15 K, x1 = 0.5539	931.86 ± 0.63
303.15 K, x1 = 0.6209	918.33 ± 0.68
303.15 K, x1 = 0.6902	905.23 ± 0.73
303.15 K, x1 = 0.7532	894.02 ± 0.77
303.15 K, x1 = 0.8149	883.65 ± 0.82
303.15 K, x1 = 0.8687	875.05 ± 0.85
303.15 K, x1 = 0.9373	864.64 ± 0.9
313.15 K, x1 = 0.0854	1051.04 ± 0.31
313.15 K, x1 = 0.1527	1028.01 ± 0.33
313.15 K, x1 = 0.2357	1002.14 ± 0.38
313.15 K, x1 = 0.2978	984.4 ± 0.43
313.15 K, x1 = 0.3576	968.48 ± 0.48
313.15 K, x1 = 0.4077	955.97 ± 0.52
313.15 K, x1 = 0.4676	941.86 ± 0.56
313.15 K, x1 = 0.5239	929.42 ± 0.61
313.15 K, x1 = 0.5823	917.24 ± 0.65
313.15 K, x1 = 0.6521	903.59 ± 0.7
313.15 K, x1 = 0.7389	887.82 ± 0.76
313.15 K, x1 = 0.7912	878.91 ± 0.8
313.15 K, x1 = 0.8513	869.17 ± 0.84
313.15 K, x1 = 0.9327	856.77 ± 0.89
323.15 K, x1 = 0.0746	1046.35 ± 0.3
323.15 K, x1 = 0.1647	1015.41 ± 0.33
323.15 K, x1 = 0.2138	999.97 ± 0.36
323.15 K, x1 = 0.2847	979.25 ± 0.42
323.15 K, x1 = 0.3579	959.6 ± 0.48
323.15 K, x1 = 0.4135	945.75 ± 0.52
323.15 K, x1 = 0.4724	931.98 ± 0.57
323.15 K, x1 = 0.5249	920.42 ± 0.61
323.15 K, x1 = 0.6038	904.17 ± 0.67
323.15 K, x1 = 0.6739	890.78 ± 0.72
323.15 K, x1 = 0.7598	875.54 ± 0.78
323.15 K, x1 = 0.8133	866.63 ± 0.81
323.15 K, x1 = 0.8732	857.15 ± 0.85
323.15 K, x1 = 0.9239	849.51 ± 0.89
333.15 K, x1 = 0.0673	1040.47 ± 0.29
333.15 K, x1 = 0.1568	1009.3 ± 0.32
333.15 K, x1 = 0.2249	987.86 ± 0.37
333.15 K, x1 = 0.2935	968.02 ± 0.43
333.15 K, x1 = 0.3687	948.04 ± 0.49
333.15 K, x1 = 0.4312	932.71 ± 0.54
333.15 K, x1 = 0.4921	918.76 ± 0.59
333.15 K, x1 = 0.5638	903.47 ± 0.64
333.15 K, x1 = 0.6304	890.23 ± 0.69
333.15 K, x1 = 0.693	878.57 ± 0.73
333.15 K, x1 = 0.7563	867.46 ± 0.77
333.15 K, x1 = 0.8137	857.93 ± 0.81
333.15 K, x1 = 0.8846	846.82 ± 0.86
333.15 K, x1 = 0.9355	839.26 ± 0.89
343.15 K, x1 = 0.0647	1032.84 ± 0.28
343.15 K, x1 = 0.1491	1003.11 ± 0.31
343.15 K, x1 = 0.2139	982.42 ± 0.36
343.15 K, x1 = 0.2749	964.42 ± 0.41
343.15 K, x1 = 0.3588	941.76 ± 0.48
343.15 K, x1 = 0.4395	921.95 ± 0.55
343.15 K, x1 = 0.5023	907.73 ± 0.59
343.15 K, x1 = 0.5539	896.74 ± 0.63
343.15 K, x1 = 0.6135	884.76 ± 0.67
343.15 K, x1 = 0.675	873.12 ± 0.72
343.15 K, x1 = 0.7523	859.44 ± 0.77
343.15 K, x1 = 0.8132	849.34 ± 0.81
343.15 K, x1 = 0.8643	841.29 ± 0.84
343.15 K, x1 = 0.9247	832.25 ± 0.88
353.15 K, x1 = 0.0734	1020.97 ± 0.27
353.15 K, x1 = 0.1359	998.8 ± 0.3
353.15 K, x1 = 0.1844	982.84 ± 0.34
353.15 K, x1 = 0.2258	970 ± 0.38
353.15 K, x1 = 0.2844	952.95 ± 0.43
353.15 K, x1 = 0.3535	934.34 ± 0.48
353.15 K, x1 = 0.4241	916.83 ± 0.54
353.15 K, x1 = 0.4798	903.97 ± 0.58
353.15 K, x1 = 0.5323	892.53 ± 0.62
353.15 K, x1 = 0.6042	877.86 ± 0.67
353.15 K, x1 = 0.6724	864.89 ± 0.72
353.15 K, x1 = 0.7539	850.47 ± 0.77
353.15 K, x1 = 0.8375	836.8 ± 0.83
353.15 K, x1 = 0.9144	825.15 ± 0.88

Source: the NIST ThermoML archive (doi:10.1016/j.jct.2004.04.004)
